{"source": "patent US20200187527A1", "about": "“METHODS TO INCREASE SILAGE QUALITY IN CROPS” (Valent BioSciences LLC, priority 2013, published 2020)", "key": {"corn [1]": {"system": "corn", "assay": "Example 1 field trial: corn silage quality after foliar RyzUp Smartgrass at V4", "type": "in vivo, Zea mays (corn)", "settings": "vs untreated Control; 3.2 g GA3/acre (8 g/ha) at V4", "method": "(§1) Field trials were conducted at various locations. Portions of the field were treated with RyzUp® Smartgrass (40% (w/v) GA3 (available from Valent BioSciences Corporation), while other parts of the field were not treated. RyzUp® Smartgrass applications were limited to applications between V3 and V6, with spray volumes for foliar applications ranging from 10-25 gallons/acre.\n(§2) Trials were harvested using commercial equipment at standard timings for corn silage. Both RyzUp® Smartgrass and untreated areas of the field were harvested separately in order to obtain biomass yield (ton/acre). Subsequently, the harvested plant material was used for producing silage.\n(§3) Representative samples were taken for subsequent analysis. Forage was analyzed by standard methods to determine quality parameters including dry matter, crude protein, Acid Detergent Fiber (ADF), Neutral Detergent Fiber (NDF), and starch data. Calculations were included for moisture, adjusted crude protein, Total Digestible Nutrients (TDN), Net Energy for Lactation (NEL), Net Energy for Gain (NEG) and protein solubility. This information was then entered into the MILK 2006 University of Wisconsin Corn Silage evaluation system. Calculations of the milk production, energy content and digestibility per ton of corn biomass were carried out using a calculation method described in the following references: Schwab, E. C., and R. D. Shaver. (2001); b) Schwab, E C et al. (2003); and c) Undersander, D J et al., (1993)\nModern corn hybrid varieties were grown in a field trial. RyzUp® Smartgrass (40% GA3) was applied at V4 growth stage at a rate of 3.2 g GA^3/acre (8 g/ha). In this trial, silage quality data were analyzed for each variety and the means were used to calculate milk production (Table 1). Percent moisture, crude protein, ADF and NDF were decreased while TDN, starch, and milk production were increased."}, "corn [2]": {"system": "corn", "assay": "Example 2 field trial: corn silage quality after RyzUp Smartgrass at V5 under drought stress", "type": "in vivo, Zea mays (corn)", "settings": "vs untreated Control, 6.4 g GA3/acre (16 g/ha) at V5", "method": "as §1, §2, §3\nCorn grown in a field trial was treated at the V5 stage with RyzUp® Smartgrass (GA3 (w/v) 40%) at a rate of 6.4 g GA^3/acre (16 g/ha). Treatments were made in a spray volume of 15 gallons of water per acre with added surfactant. The overall conditions of this trial were drought stress both before and following application."}, "alfalfa": {"system": "alfalfa", "settings": "GA3 applications; cited from earlier work"}, "smooth bromegrass": {"system": "smooth bromegrass", "settings": "GA3 applications; cited from earlier work"}}, "data": [{"compound": "C=C1C[C@]23C[C@@]1(O)CC[C@H]2[C@@]12C=C[C@H](O)[C@@](C)(C(=O)O1)[C@H]2[C@@H]3C(=O)O", "note": "[GA3, gibberellin 3]", "values": [{"measurement": "% NDF, Percent Difference", "setting": "corn [1]", "value": "−2.7", "unit": "%"}, {"measurement": "% Starch, Percent Difference", "setting": "corn [1]", "value": "+16.7%"}, {"measurement": "% TDN, Percent Difference", "setting": "corn [1]", "value": "+1.2%"}, {"measurement": "Milk (lbs/t), Percent Difference", "setting": "corn [1]", "value": "+2.6%"}, {"measurement": "% NDF, Percent Difference", "setting": "corn [2]", "value": "−17.8", "unit": "%"}, {"measurement": "% Starch, Percent Difference", "setting": "corn [2]", "value": "+55.4%"}, {"measurement": "% TDN, Percent Difference", "setting": "corn [2]", "value": "+8%"}, {"measurement": "dry weight", "setting": "alfalfa", "value": "dose-dependent increase"}, {"measurement": "growth", "setting": "alfalfa", "value": "dose-dependent increase"}, {"measurement": "in vitro digestible dry matter (IVDDM)", "setting": "alfalfa", "value": "decreased"}, {"measurement": "dry weight", "setting": "smooth bromegrass", "value": "dose-dependent increase"}, {"measurement": "growth", "setting": "smooth bromegrass", "value": "dose-dependent increase"}, {"measurement": "in vitro digestible dry matter (IVDDM)", "setting": "smooth bromegrass", "value": "decreased"}]}]}
